In patent US5563130A, “Methods for inhibiting angiogenesis, proliferation of endothelial or tumor cells and tumor growth” (American Cyanamid Company, priority 1994, dated 1996):
Counter-ions that a name gives are not always drawn.

Assays:
Type in all cases: cell-based
A2780/DDP = assay: Antiproliferative activity in human ovarian tumor cell line A2780/DDP; conditions: PROTOCOL 1 and PROTOCOL 2
Experimental: (§1) PROTOCOL 1, 2, and 3 are described in greater detail hereinbelow. In general, according to PROTOCOLS 1 and 2, the target ABAE and/or Human Tumor cells are exposed to the compound of Formula I for 48 hours. PROTOCOL 3 exposes ABAE cell to the compound for 4 days. A detailed description of the protocol is as follows:
(§2) Antiproliferative Activity in Human Tumor and Adult Bovine Aortic Endothelial (ABAE) Cell Lines
(§3) The antiproliferative activity of the compounds of Formula I of the present invention is evaluated in a panel comprised of human tumor cell lines and an adult bovine aortic endothelial cell line (ABAE). The human tumor cell lines are from:
(§4) All cell lines are maintained in log phase in RPMI 1640 media, supplemented with 5% fetal calf serum, penicillin/streptomycin and 2 mM L-glutamine. Cultures are renewed after 20 passages with cells from a fresh stock of batch-frozen early passage cells. Cell lines are routinely checked for mycoplasma contamination (Genprobe). In a laminar flow hood, cells (1-5×10^4) are plated into 96-well microtiter plates in a volume of 0.1 ml/well with a bulk microtiter dispenser (Denley). […] At this concentration, dimethylsulfoxide has no effect on cell growth. Compounds are added using a Tomtec dispenser which simultaneously dispenses from one 96-well plate, containing the drug dilutions, to the plates containing the cells. After two days of continuous drug exposure, 50% cold trichloroacetic acid (TCA) is added to 10% final concentration to fix the cells, and after 60 minutes at 4° C., the TCA is aspirated and the plates are washed 5 times with deionized water using a microtiter plate washer. The number of cells on the plate are quantitated using a protein dye-binding assay (Monks et al., 1991). A 0.4% solution of the dye, sulforhodamine B, in glacial acetic acid is added to the plates, and the plates are washed 5 times with 1% glacial acetic acid using the automatic plate washed. The bound stain is solubilized with 0.1 ml of 10 mM Tris base. The optical densities are read from an automatic spectrophotometric plate reader (Dynatech) directly to a main frame computer (VAX 8600).
(§5) Positive controls, that include standard chemotherapeutic drugs (i.e., adriamycin, cisplatin, etc.), are included in every experiment.
(§6) Background optical density measurements (complete media-cells, and complete media+drug-cells) are automatically subtracted from the appropriate control and test wells. Mean values and standard errors are determined from duplicate wells. A measure is also made of the optical density at time when the drugs are added. The number of cells after treatment (P), as % of control, is calculated for every concentration of drug, as follows: [formula] wherein: T is optical density measurement for treated cells after 48 hours;
(§7) C is optical density measurement for untreated cells after 48 hours;
(§8) Co is optical density measurement for cells at the time of drug addition.
(§9) IC50 of growth inhibition is calculated from the sets of P values using the RS-1 data package (BBN Software).
(§10) The antiproliferative activity of the compounds of Formula I is evaluated in a panel comprised of human tumor cell lines and an adult bovine aortic endothelial cell line (ABAE) as listed in PROTOCOL 1. This assay is a modification of PROTOCOL 1. The modifications include:
(§11) 1) each concentration for each compound is tested in a single well;
(§12) 2) compounds are tested at 20, 4, 0.8, 0.16 microgram/ml and additionally in some experiments at 100 and 0.32 microgram/ml;
(§13) 3) samples are pipetted into a 96-well plate for each of the cell lines by a Beckman Biomek 1000 SL robot;
(§14) 4) after fixing with TCA each well is washed with 0.35 ml distilled water twice, not five times;
(§15) 5) after staining with sulforhodamine B each well is washed 3 times, not five times; […]

SW620 = assay: Antiproliferative activity in human colon tumor cell line SW620; conditions: PROTOCOL 1 and PROTOCOL 2
Experimental: as §1, §2, §3
(§16) 2) Colon tumors: MIP, CaCo2, and SW620.
as §4, §5, §6, §7, §8, §9, §10, §11, §12, §13, §14, §15

A2780S = assay: Antiproliferative activity in human ovarian tumor cell line A2780S; conditions: PROTOCOL 1 and PROTOCOL 2
Experimental: as §1, §2, §3, §4, §5, §6, §7, §8, §9, §10, §11, §12, §13, §14, §15

Human Tumor Cell lines = assay: Antiproliferative activity in panel of human tumor cell lines; conditions: average over the tested human tumor cell lines
Experimental: as §1, §2, §3, §16, §4, §5, §6, §7, §8, §9, §10, §11, §12, §13, §14, §15

MIP = assay: Antiproliferative activity in human colon tumor cell line MIP; conditions: PROTOCOL 1 and PROTOCOL 2
Experimental: as §1, §2, §3, §16, §4, §5, §6, §7, §8, §9, §10, §11, §12, §13, §14, §15

HTB 16 = assay: Antiproliferative activity in human tumor cell line HTB 16; conditions: ovarian tumor line; PROTOCOL 1 and PROTOCOL 2
Experimental: as §1, §2, §3, §4, §5, §6, §7, §8, §9, §10, §11, §12, §13, §14, §15

[1] = system: Adult Bovine Aortic Endothelial (ABAE) cell line; assay: Antiproliferative activity in ABAE cells, PROTOCOL 1 (48 h, SRB)
Experimental: PROTOCOL 1, 2, and 3 are described in greater detail hereinbelow. In general, according to PROTOCOLS 1 and 2, the target ABAE and/or Human Tumor cells are exposed to the compound of Formula I for 48 hours. PROTOCOL 3 exposes ABAE cell to the compound for 4 days. A detailed description of the protocol is as follows: Antiproliferative Activity in Human Tumor and Adult Bovine Aortic Endothelial (ABAE) Cell Lines The antiproliferative activity of the compounds of Formula I of the present invention is evaluated in a panel comprised of human tumor cell lines and an adult bovine aortic endothelial cell line (ABAE). […] The number of cells on the plate are quantitated using a protein dye-binding assay (Monks et al., 1991). […] The optical densities are read from an automatic spectrophotometric plate reader (Dynatech) directly to a main frame computer (VAX 8600). […] Mean values and standard errors are determined from duplicate wells. […] The number of cells after treatment (P), as % of control, is calculated for every concentration of drug, as follows: [formula] wherein: T is optical density measurement for treated cells after 48 hours; C is optical density measurement for untreated cells after 48 hours; Co is optical density measurement for cells at the time of drug addition. IC50 of growth inhibition is calculated from the sets of P values using the RS-1 data package (BBN Software). […]

[2] = system: Adult Bovine Aortic Endothelial (ABAE) cell line; assay: Antiproliferative activity in ABAE cells, PROTOCOL 2 (48 h, SRB, single well)
Experimental: as §1, §2, §10, §11, §12, §13, §14
5) after staining with sulforhodamine B each well is washed 3 times, not five times;
6) the growth inhibition (I) as % of control, is calculated using the RS-1 data package (BBN Software), for every concentration of drug, as follows: [formula] wherein: T is optical density measurement for treated cells after 48 hours;
as §7
7) IC50 of growth inhibition is determined from graphically from dose response curves, as is known in the art.
Table 1 presents the results depicting the antiproliferative activity of the compounds of Formula I against an Adult Bovine Aortic Endothelial (ABAE) cell line, as evaluated by PROTOCOL 1 and PROTOCOL 2. The results are presented in terms of IC50 and are as follows.

[3] = system: Adult Bovine Aortic Endothelial (ABAE) cell line; assay: Antiproliferative activity in ABAE cells, PROTOCOL 3 (4 days, cell count); conditions: PROTOCOL 3, FIG. 1
Experimental: as §1
Antiproliferative Activity in Adult Bovine Aortic Endothelial (ABAE) Cell Line
ABAE cells are grown in DMEM media (Mediatech, Washington, D.C.) supplemented with 10% calf serum (Hyclone). ABAE cells are plated in 24-well dishes at 8,000 cells/well, followed by the addition of increasing concentrations of 7-[substituted amino]-9-[(substituted glycyl)amido]-6-demethyl-6-deoxytetracyclines. After four days, the cells are detached and counted. […] The growth inhibition (I) as % of control is calculated as follows: [formula] wherein: Nc is the number of cells in untreated wells;
Nt is the number of cells in treated wells;
No is the number of plated cells.
IC50 of growth inhibition is determined from the sets of I values plotted by Kaleidograph software (Abelbeck Software).
In addition FIG. 1, presents the dose response curve of the compound of Example 6 for the above ABAE cell line obtained by PROTOCOL 3.

SMILES | A2780/DDP IC50 (A2780/DDP) [µg/mL] | SW620 IC50 (SW620) [µg/mL] | A2780S IC50 (A2780S) [µg/mL] | AVERAGE IC50 FOR TUMOR CELL LINES (Human Tumor Cell lines) [µg/mL] | MIP IC50 (MIP) [µg/mL] | HTB 16 IC50 (HTB 16) [µg/mL] | IC50 PROTOCOL 1 [1] [µg/mL] | IC50 PROTOCOL 2 ([2]; ABAE cells, 48 h, PROTOCOL 2) [µg/mL] | activity in preventing proliferation of ABAE cells compared to Minocycline ([2]; Table 1) | inhibits 50% of cell growth [3]
CN(C)[C@@H]1C(O)=C(C(N)=O)C(=O)[C@@]2(O)C(O)=C3C(=O)c4c(ccc(NC(=O)CN5CCCCC5)c4O)CC3CC12 (stereo partly drawn) [Example 3, [7S-(7alpha,10aalpha)]-N-9-(Aminocarbonyl)-7-(dimethylamino)-5,5a,6,6a,7,10,10a,12-octahydro-1,8,10a,11-tetrahydroxy-10,12-dioxo-1-piperidineacetamidedihydrochloride] | 2.7 | 2.8 | 2.5 | 2.7 | 3.0 | 2.3 | – | – | – | –
CN(C)[C@@H]1C(O)=C(C(N)=O)C(=O)[C@@]2(O)C(O)=C3C(=O)c4c(ccc(NC(=O)CNCC5CC5)c4O)CC3CC12.Cl.Cl (stereo partly drawn) [Example 7, [4S-(4alpha,12aalpha)]-9-[[[(Cyclopropylmethyl)amino)acetyl]amino]-4-(dimethylamino)-1,4,4a,5,5a,6,11,12a-octahydro-3,10,12,12a-tetrahydroxy-1,11-dioxo-2-naphthacenecarboxamide dihydrochloride] | 3.9 | 3.9 | 4.9 | 4.5 | 6.3 | 3.3 | – | – | – | –
CN(C)[C@@H]1C(O)=C(C(N)=O)C(=O)[C@@]2(O)C(O)=C3C(=O)c4c(ccc(NC(=O)CN5CCCC5)c4O)CC3CC12.Cl.Cl (stereo partly shown) [Example 5] | 2.7 | 2.8 | 2.5 | 2.7 | 3.0 | 2.3 | – | – | – | –
CCCNCC(=O)Nc1ccc2c(c1O)C(=O)C1=C(O)[C@]3(O)C(=O)C(C(N)=O)=C(O)[C@@H](N(C)C)C3CC1C2.Cl.Cl (stereo partly shown) [Example 4] | 3.1 | 1.3 | 3.2 | 2.85 | 3.4 | 3.2 | 5.2 | – | – | –
CN(C)CC(=O)Nc1ccc2c(c1O)C(=O)C1=C(O)[C@]3(O)C(=O)C(C(N)=O)=C(O)[C@@H](N(C)C)C3CC1C2.Cl.Cl (stereo partly drawn) [Example 8, [4S-(4alpha,121aalpha)]-9-[[(Dimethylamino)acetyl]-amino]-4-(dimethylamino)-1,4,4a,5,5a,6,11,12a-octahydro-3,10,12,12a-tetrahydroxy-1,11-dioxo-2-naphthacenecarboxamide dihydrochloride] | 5.8 | 5.0 | 4.8 | 5.1 | 6.0 | 4.1 | – | – | – | –
CCCCNCC(=O)Nc1ccc2c(c1O)C(=O)C1=C(O)[C@]3(O)C(=O)C(C(N)=O)=C(O)[C@@H](N(C)C)C3CC1C2.Cl (stereo partly drawn) [Example 6, [4S-(4alpha,12aalpha)]-9-[[(Butylamino)acetyl]amino]-4-(dimethylamino)-1,4,4a,5,5a,6,11,12a-octahydro-3,10,12,12a-tetrahydroxy-1,11-dioxo-2-naphthacenecarboxamide monohydrochloride] | 3.3 | 3.2 | 3.4 | 3.2 | 3.4 | 2.9 | – | 4 | extraordinary activity in preventing the proliferation of ABAE cells as compared to the prior art compound, Minocycline | approximately 3 μg/ml
CC(C)CNCC(=O)Nc1ccc2c(c1O)C(=O)C1=C(O)[C@]3(O)C(=O)C(C(N)=O)=C(O)[C@@H](N(C)C)C3CC1C2.Cl.Cl (stereo partly drawn) [Example 9, [b 4S-(4alpha,12aalpha)]-4-(Dimethylamino)-1,4,4a,5,5a,-6,11,12a-octahydro-3,10,12,12a-tetrahydroxy-9-[[[(2-methylpropyl)amino]acetyl]amino]-1,11-dioxo-2-naphthacenecarboxamide dihydrochloride] | 7.7 | 5.7 | 3.5 | 5.5 | 5.75 | 5.0 | – | – | – | –
